pIC50: −log10 of the molar value.
Target: VEGF receptor 2 kinase (VEGFR2, KDR/Flk-1) (Homo sapiens, UniProt P35968)
Assay: in vitro kinase assay
Assay type: biochemical

VEGF receptor 2 kinase (VEGFR2, KDR/Flk-1), sequence (P35968 20-1356): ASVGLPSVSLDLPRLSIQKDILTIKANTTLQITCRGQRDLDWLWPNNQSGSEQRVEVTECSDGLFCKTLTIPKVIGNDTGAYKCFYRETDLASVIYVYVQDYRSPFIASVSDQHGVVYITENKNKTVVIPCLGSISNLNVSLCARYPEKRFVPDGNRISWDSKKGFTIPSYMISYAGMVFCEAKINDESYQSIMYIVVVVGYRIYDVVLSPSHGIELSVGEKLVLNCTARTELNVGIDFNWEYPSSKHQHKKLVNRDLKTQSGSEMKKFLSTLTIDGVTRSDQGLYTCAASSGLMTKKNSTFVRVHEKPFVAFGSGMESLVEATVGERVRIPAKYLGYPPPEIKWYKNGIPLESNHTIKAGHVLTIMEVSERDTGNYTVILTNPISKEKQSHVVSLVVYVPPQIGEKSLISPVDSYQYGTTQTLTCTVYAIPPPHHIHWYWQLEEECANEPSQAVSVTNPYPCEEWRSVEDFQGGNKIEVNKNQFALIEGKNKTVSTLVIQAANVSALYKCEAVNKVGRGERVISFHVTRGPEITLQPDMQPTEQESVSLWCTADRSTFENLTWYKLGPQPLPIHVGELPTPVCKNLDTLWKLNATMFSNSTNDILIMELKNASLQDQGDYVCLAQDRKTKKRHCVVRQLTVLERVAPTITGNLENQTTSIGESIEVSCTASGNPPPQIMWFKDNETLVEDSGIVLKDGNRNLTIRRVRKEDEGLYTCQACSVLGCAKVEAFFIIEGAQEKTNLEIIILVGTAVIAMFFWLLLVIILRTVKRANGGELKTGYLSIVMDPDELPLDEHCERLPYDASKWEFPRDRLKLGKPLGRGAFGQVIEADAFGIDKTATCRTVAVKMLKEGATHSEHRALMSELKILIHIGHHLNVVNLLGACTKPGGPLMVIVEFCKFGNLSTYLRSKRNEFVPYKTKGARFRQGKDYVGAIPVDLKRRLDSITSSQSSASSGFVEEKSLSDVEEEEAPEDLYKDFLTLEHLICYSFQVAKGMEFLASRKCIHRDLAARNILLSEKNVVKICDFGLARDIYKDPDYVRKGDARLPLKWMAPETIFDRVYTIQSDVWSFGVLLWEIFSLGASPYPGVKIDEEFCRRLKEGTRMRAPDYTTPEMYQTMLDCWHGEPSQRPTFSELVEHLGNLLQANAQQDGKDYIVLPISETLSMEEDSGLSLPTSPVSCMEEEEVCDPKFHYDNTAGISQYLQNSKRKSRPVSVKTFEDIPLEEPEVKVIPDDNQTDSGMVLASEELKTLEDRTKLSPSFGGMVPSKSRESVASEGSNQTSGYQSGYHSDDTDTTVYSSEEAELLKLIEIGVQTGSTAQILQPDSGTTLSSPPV

CC(=O)O[C@@H]1CC[C@@]2(C)[C@@H](CC[C@]3(C)[C@@H]2C(=O)C=C2[C@@H]4[C@@H](C)[C@H](C)CC[C@]4(C)CC[C@]23C)[C@@]1(C)C(=O)O [AKBA]
pIC50: 5.77
